Source: PMC8428848, “Ancient role of sulfakinin/cholecystokinin-type signalling in inhibitory regulation of feeding processes revealed in an echinoderm” (eLife, 2021)
Where two headings read alike, the source gives them in different places. One block for each molecule: values may come before it. Square brackets hold non-standard residues; d marks the D form. Ends that are not written are not given here. * marks the point of attachment. pGlu = O=C1CC[C@@H](C(=O)O)N1; SO3H = O=S(=O)(O)*

How the values were obtained:
ArSK/CCKR = molecular target: T1, ArSK/CCKR (Asterias rubens, UniProt A0A8F2ZGB9); assay: Aequorin bioluminescence receptor assay in CHO-K1 cells (G5A) co-transfected with ArSK/CCKR and human Gα16; type: cell-based; settings: 10^–12 to 10^–4 M; at least three independent experiments in triplicate
T1 sequence (A0A8F2ZGB9 1-434): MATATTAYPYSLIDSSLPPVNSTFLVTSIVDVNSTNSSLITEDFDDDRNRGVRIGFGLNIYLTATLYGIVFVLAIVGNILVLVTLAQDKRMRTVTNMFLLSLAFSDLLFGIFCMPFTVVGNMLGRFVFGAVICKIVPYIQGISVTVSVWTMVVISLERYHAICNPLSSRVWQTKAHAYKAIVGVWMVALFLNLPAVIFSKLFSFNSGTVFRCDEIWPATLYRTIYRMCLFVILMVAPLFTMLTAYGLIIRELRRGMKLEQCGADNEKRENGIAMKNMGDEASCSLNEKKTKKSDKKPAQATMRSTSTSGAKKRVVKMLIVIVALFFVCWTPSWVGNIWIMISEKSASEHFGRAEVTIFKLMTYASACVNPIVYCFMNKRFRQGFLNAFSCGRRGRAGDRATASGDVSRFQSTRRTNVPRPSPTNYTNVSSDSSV
Text: To enable testing of ArSK/CCK1 and ArSK/CCK2 as candidate ligands for ArSK/CCKR, a full-length cDNA encoding ArSK/CCKR was synthesized by GenScript (Piscataway, NJ) and cloned into pcDNA 3.1+ vector (Invitrogen, Thermo Fisher Scientific, Waltham, MA). A partial Kozak translation initiation sequence (CACC) was introduced upstream to the start codon (ATG). CHO-K1 cells stably expressing the mitochondrial targeted calcium-sensitive bioluminescent reporter GFP-aequorin fusion protein (G5A) ([Baubet et al., 2000]) were used as a heterologous expression system for ArSK/CCKR. These cells have been used previously for neuropeptide receptor deorphanisation ([Bauknecht and Jékely, 2015]) and were generously supplied to us by Dr Gáspár Jékely (University of Exeter). The cell line was generated using the CHO-K1 cell line from Sigma-Aldrich (85051005; RRID: CVCL_0214), which is certified by the European Collection of Authenticated Cell Cultures (ECACC), and expression of the GFP-aequorin fusion protein (G5A) in the cell line was determined by functionality in displaying calcium-activated luminescence. […] Cells were cultured, co-transfected with the pcDNA 3.1+ vector containing the ArSK/CCKR cDNA sequence and plasmids encoding the promiscuous human G-protein Gα16. Then bioluminescence-based receptor assays were performed, as described previously for A. rubens luqin-type receptors ([Yañez-Guerra et al., 2018]).
[…] Concentration-response data were determined as a percentage of the highest response for each peptide (100% activation). EC50 values were calculated from concentration-response curves based on four to six independent transfections and averaging two to three replicates in each transfection using Prism 6.0 (RRID:SCR_002798; GraphPad software, La Jolla, CA). Cells transfected with an empty vector were used for control experiments.

Asterias rubens [1] = settings: injected in vivo; ref Tinoco et al., 2018; cited from earlier work
Text: The in vivo effect of SK/CCK-type neuropeptides in triggering cardiac stomach retraction is indicative of a role in physiological mechanisms that control termination of feeding behaviour in starfish. […] Accordingly, here we observed that starfish injected with SK/CCK-type neuropeptides took longer to enclose prey compared to control animals injected with water. Further ...

Asterias rubens [2] = settings: cited from earlier work
Text: (§1) Extra-oral feeding in starfish requires relaxation of muscle in the wall of the cardiac stomach and in intrinsic and extrinsic retractor strands to enable stomach eversion. Then when external digestion and ingestion of prey tissue is completed, contraction of the musculature enables cardiac stomach retraction ([Anderson, 1954]). Previous studies have identified neuropep ...

[3] = tested on: cardiac stomach preparations; settings: cited from earlier work
Text: as §1

[4] = tested on: affinity-purified rabbit antibodies to ArSK/CCK1; assay: ELISA specificity test of affinity-purified antibodies to ArSK/CCK1; type: binding; settings: TEA fraction diluted 1:10; peptide 0.1 nmol (100 µl of 1 µM); mean of six replicates
Text: To generate antibodies to ArSK/CCK1, an N-terminally truncated peptide analog of ArSK/CCK1 with the addition of a reactive N-terminal lysine residue was synthesized (KY(SO3H)GHGLFW-NH2 , Peptide Protein Research Ltd, Fareham, UK). To generate antibodies to ArSK/CCKR, a peptide corresponding to the C-terminal 15 amino acids of ArSK/CCK-R with addition of an N-terminal reactive lysine residue was synthesized (KPSPTNYTNVSSDSSV, Peptide Protein Research Ltd, Fareham, UK). These peptides were conjugated to porcine thyroglobulin (Sigma-Aldrich, Gillingham, UK) as a carrier protein using 5% glutaraldehyde (Sigma-Aldrich, Gillingham, UK) in phosphate buffer (0.1 M; pH 7.2) and the conjugate was used for immunisation of a rabbit for ArSK/CCK1 (70-day protocol; Charles River Biologics, Romans, France) and a guinea pig for ArSK/CCKR (56-day protocol; Charles River Biologics, Romans, France). The antigens were emulsified in Freund’s complete adjuvant for primary immunisations (~100 nmol antigen peptide) and in Freund’s incomplete adjuvant for three booster immunisations (~50 nmol antigen peptide). The presence of antibodies to the antigen peptides in post-immunisation serum samples was assessed using an enzyme-linked immunosorbent assay (ELISA), in comparison with pre-immune serum (Figure 5—figure supplement 1a; Figure 6—figure supplement 1). Antibodies to the antigen peptides were purified from the final bleed antiserum by affinity purification using the AminoLink Plus Immobilization Kit (Thermo Fisher Scientific, Waltham, MA), with bound antibodies eluted using glycine elution buffer (6.3 ml of 100 mM glycine [VWR Chemicals, Leicestershire, UK] and 0.7 ml of Tris [1 M, pH = 7.0]) and […] (TEA) elution buffer (6.3 ml of TEA [Sigma-Aldrich, Gillingham, UK] and 0.7 ml of Tris [1 M, pH = 7.0]). Eluates were dialyzed and sodium azide (0.1%) was added for long-term storage of the affinity-purified antibodies at 4°C. The specificity of ArSK/CCK1 antibodies eluted with TEA, which were subsequently used for immunohistochemistry (see below), was assessed by ELISA by testing them at a concentration of 1:10 with the following synthetic peptides (100 µl at a concentration of 1 µM dissolved in carbonate/bicarbonate buffer [25 mM sodium carbonate, 25 mM sodium bicarbonate, pH = 9.8]): ArSK/CCK1, ArSK/CCK2, ArSK/CCK2(ns) and the A. rubens luqin-type peptide ArLQ (Figure 5—figure supplement 1b). The rabbit antiserum to ArSK/CCK1 has been assigned the RRID:AB_2877176 and the guinea pig antiserum to ArSK/CCKR has been assigned the RRID:AB_2891354.

[5] = molecular target: Asterias rubens SK/CCK-type receptor (ArSK/CCKR) (Asterias rubens)

Molecule: GGGVPHVFQSGGIF-NH2 [ArTK2, A. rubens tachykinin-like peptide ([…]-NH2), reference compound]
activation of ArSK/CCKR (luminescence) (ArSK/CCKR): inactive

Molecule: NGFFYamide
onset of feeding on prey (mussels) (Asterias rubens [1]): significant delay in the onset of feeding | effect on everted cardiac stomach when injected in vivo (Asterias rubens [2]; ref Semmens et al., 2013): retraction of the everted stomach | effect on cardiac stomach in vitro ([3]; ref Semmens et al., 2013): triggers contraction

Molecule: asterotocin
effect on cardiac stomach when injected in vivo (Asterias rubens [2]; ref Odekunle et al., 2019): trigger cardiac stomach eversion | effect on cardiac stomach in vitro ([3]; ref Odekunle et al., 2019): cause relaxation

Molecule: SGPYSFNSGLTF-NH2 [S2, SALMFamide neuropeptide S2 (…-NH2)]
effect on cardiac stomach when injected in vivo (Asterias rubens [2]; ref Melarange et al., 1999): trigger cardiac stomach eversion | effect on cardiac stomach in vitro ([3]; ref Melarange et al., 1999): cause relaxation | activation of ArSK/CCKR (luminescence) (ArSK/CCKR): inactive

Molecule: EEKTRFPKFMRW-NH2 [ArLQ, A. rubens luqin-type neuropeptide …-NH2, reference compound]
ELISA reactivity (optical density) with antibodies to ArSK/CCK1 [4]: do not cross-react

EC50 of concentration-dependent luminescence (calcium, GFP-aequorin G5A) in CHO-K1 cells transfected with ArSK/CCKR and human Gα16 [5]: 48000 nM
Molecule: GGDDQYGFGLFF-NH2 [ArSK/CCK2(ns), non-sulphated form of ArSK/CCK2, …-NH2]

EC50 of concentration-dependent luminescence (calcium, GFP-aequorin G5A) in CHO-K1 cells transfected with ArSK/CCKR and human Gα16 [5]: 0.12 nM
B1: ArSK/CCK2 (Asterias rubens sulfakinin/cholecystokinin-type neuropeptide 2), GGDDQY(SO3H)GFGLFF-NH2 (peptide)
peptide: GGDDQY(SO3H)GFGLFF-NH2
modifications: N-terminus assumed
SMILES: CC(C)C[C@H](NC(=O)CNC(=O)[C@H](Cc1ccccc1)NC(=O)CNC(=O)[C@H](Cc1ccc(OS(=O)(=O)O)cc1)NC(=O)[C@H](CCC(N)=O)NC(=O)[C@H](CC(=O)O)NC(=O)[C@H](CC(=O)O)NC(=O)CNC(=O)CN)C(=O)N[C@@H](Cc1ccccc1)C(=O)N[C@@H](Cc1ccccc1)C(N)=O

EC50 of concentration-dependent luminescence (calcium, GFP-aequorin G5A) in CHO-K1 cells transfected with ArSK/CCKR and human Gα16 [5]: 0.25 nM
B2: ArSK/CCK1 (Asterias rubens sulfakinin/cholecystokinin-type neuropeptide 1), pQSKVDDY(SO3H)GHGLFW-NH2 (peptide)
peptide: [pGlu]SKVDDY(SO3H)GHGLFW-NH2
SMILES: CC(C)C[C@H](NC(=O)CNC(=O)[C@H](Cc1c[nH]cn1)NC(=O)CNC(=O)[C@H](Cc1ccc(OS(=O)(=O)O)cc1)NC(=O)[C@H](CC(=O)O)NC(=O)[C@H](CC(=O)O)NC(=O)[C@@H](NC(=O)[C@H](CCCCN)NC(=O)[C@H](CO)NC(=O)[C@@H]1CCC(=O)N1)C(C)C)C(=O)N[C@@H](Cc1ccccc1)C(=O)N[C@@H](Cc1c[nH]c2ccccc12)C(N)=O
